# According to ChEMBL document CHEMBL3526020, “Significance of peptide transporter 1 in the intestinal permeability of valacyclovir in wild-type and PepT1 knockout mice” (Drug Metab Dispos, 2013):
# B1: Solute carrier family 15 member 1 (Homo sapiens) (protein)
# chain: MGMSKSHSFFGYPLSIFFIVVNEFCERFSYYGMRAILILYFTNFISWDDNLSTAIYHTFVALCYLTPILGALIADSWLGKFKTIVSLSIVYTIGQAVTSVSSINDLTDHNHDGTPDSLPVHVVLSLIGLALIALGTGGIKPCVSAFGGDQFEEGQEKQRNRFFSIFYLAINAGSLLSTIITPMLRVQQCGIHSKQACYPLAFGVPAALMAVALIVFVLGSGMYKKFKPQGNIMGKVAKCIGFAIKNRFRHRSKAFPKREHWLDWAKEKYDERLISQIKMVTRVMFLYIPLPMFWALFDQQGSRWTLQATTMSGKIGALEIQPDQMQTVNAILIVIMVPIFDAVLYPLIAKCGFNFTSLKKMAVGMVLASMAFVVAAIVQVEIDKTLPVFPKGNEVQIKVLNIGNNTMNISLPGEMVTLGPMSQTNAFMTFDVNKLTRINISSPGSPVTAVTDDFKQGQRHTLLVWAPNHYQVVKDGLNQKPEKGENGIRFVNTFNELITITMSGKVYANISSYNASTYQFFPSGIKGFTISSTEIPPQCQPNFNTFYLEFGSAYTYIVQRKNDSCPEVKVFEDISANTVNMALQIPQYFLLTCGEVVFSVTGLEFSYSQAPSNMKSVLQAGWLLTVAVGNIIVLIVAGAGQFSKQWAEYILFAALLLVVCVIFAIMARFYTYINPAEIEAQFDEDEKKNRLEKSNPYFMSGANSQKQM
# How the values were obtained:
# [1] = Effective permeability of the compound in PepT1 knockout mouse jejunum at 100 uM by HPLC analysis; type: ADME, tissue-based; conditions: read-out: Peff
# Plasma [2] = assay: Drug level in mouse portal vein plasma treated with valacyclovir at 100 uM by HPLC analysis; type: ADME, cell-free
# [3] = Cmax in PepT1 knockout mouse treated with 25 nmol/g, po of valacyclovir; type: ADME, organism-based; parameters: dose 25 nmol/g, route oral; conditions: in vivo
# PepT1 (SLC15A1) [4] = molecular target: T1, PepT1 (SLC15A1) (Mus musculus, UniProt Q9JIP7); assay: Effective permeability of the compound assessed as PepT1-mediated drug uptake in wild type mouse jejunum at 100 uM by HPLC analysis; type: ADME; conditions: read-out: Peff
# T1 sequence (Q9JIP7 whole entry): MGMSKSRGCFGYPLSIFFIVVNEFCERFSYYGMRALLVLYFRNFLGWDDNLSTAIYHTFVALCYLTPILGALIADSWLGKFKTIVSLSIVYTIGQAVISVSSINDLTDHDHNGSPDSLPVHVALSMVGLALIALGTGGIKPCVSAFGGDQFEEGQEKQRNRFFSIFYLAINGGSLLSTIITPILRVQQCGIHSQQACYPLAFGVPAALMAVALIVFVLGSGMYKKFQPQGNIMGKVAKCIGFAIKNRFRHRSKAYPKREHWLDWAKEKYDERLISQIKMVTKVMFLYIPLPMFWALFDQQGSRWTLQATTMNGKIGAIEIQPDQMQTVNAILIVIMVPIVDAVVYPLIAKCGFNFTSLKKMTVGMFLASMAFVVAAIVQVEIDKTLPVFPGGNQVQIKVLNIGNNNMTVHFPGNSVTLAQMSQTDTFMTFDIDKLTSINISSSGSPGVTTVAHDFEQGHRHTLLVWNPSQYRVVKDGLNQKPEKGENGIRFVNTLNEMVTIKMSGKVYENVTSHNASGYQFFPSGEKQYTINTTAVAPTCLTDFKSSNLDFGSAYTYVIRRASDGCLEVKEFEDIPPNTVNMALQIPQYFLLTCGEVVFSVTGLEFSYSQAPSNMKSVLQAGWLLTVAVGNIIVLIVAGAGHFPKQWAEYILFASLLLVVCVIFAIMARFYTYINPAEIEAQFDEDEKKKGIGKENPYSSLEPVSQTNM
# [5] = Tmax in wild type mouse treated with 25 nmol/g, po of valacyclovir; type: ADME, organism-based; conditions: in vivo
# [6] = Tmax in PepT1 knockout mouse treated with 25 nmol/g, po of valacyclovir; type: ADME, organism-based; conditions: in vivo
# [7] = Chemical stability of the compound; type: physicochemical
# [8] = AUC (0 to 180 mins) in PepT1 knockout mouse treated with 25 nmol/g, po of valacyclovir; type: ADME, organism-based; parameters: time < 3 hr, dose 25 nmol/g, route oral; conditions: plasma
# [9] = Cmax in wild type mouse treated with 25 nmol/g, po of valacyclovir; type: ADME, organism-based; parameters: dose 25 nmol/g, route oral; conditions: in vivo
# [10] = AUC (0 to 180 mins) in wild type mouse treated with 25 nmol/g, po of valacyclovir; type: ADME, organism-based; parameters: time < 3 hr, dose 25 nmol/g, route oral; conditions: plasma
# [11] = Permeability of the compound in human jejunum; type: ADME, tissue-based; conditions: read-out: permeability
# [12] = Permeability in mouse jejunum; type: ADME, tissue-based; conditions: read-out: permeability
# Duodenum [13] = assay: Drug degradation in mouse duodenum at 100 uM by chromatographic analysis; type: ADME, tissue-based
# Jejunum [14] = assay: Drug uptake in wild type mouse jejunum at 100 uM at pH 6.5 by HPLC analysis in presence of PepT1 substrate GlySar; type: ADME, tissue-based; conditions: in vivo, pH 6.5, 100 µM
# Ileum [15] = assay: Effective permeability of the compound in PepT1 knockout mouse ileum at 100 uM by HPLC analysis relative to wild type mouse; type: ADME, tissue-based
# PepT1 (SLC15A1) [16] = molecular target: T1, PepT1 (SLC15A1); assay: Effective permeability of the compound assessed as PepT1-mediated drug uptake in wild type mouse colon at 100 uM by HPLC analysis; type: ADME; conditions: not told, read-out: Peff
# Duodenum [17] = assay: Effective permeability of the compound in PepT1 knockout mouse duodenum at 100 uM by HPLC analysis relative to wild type mouse; type: ADME
# Colon [18] = assay: Drug degradation in mouse colon at 100 uM by chromatographic analysis; type: ADME, tissue-based
# [19] = Drug uptake in human Caco2 cells; type: ADME, cell-based; conditions: Caco-2 cells
# Colon [20] = assay: Effective permeability of the compound in PepT1 knockout mouse colon at 100 uM by HPLC analysis relative to wild type mouse; type: ADME
# [21] = Drug uptake in rat jejunum; type: ADME, tissue-based
# Jejunum [22] = assay: Drug uptake in wild type mouse jejunum at 100 uM at pH 6.5 by HPLC analysis in presence of PepT1 substrate cefadroxil; type: ADME, tissue-based; conditions: in vivo, pH 6.5, 100 µM
# Plasma [23] = assay: Prodrug activation in mouse portal vein plasma assessed as formation of acyclovir at 100 uM by HPLC analysis; type: cell-free
# Jejunum [24] = assay: Drug uptake in wild type mouse jejunum at 100 uM at pH 6.5 by HPLC analysis in presence of ATB0,+ substrate L-valine; type: ADME, tissue-based; conditions: in vivo, pH 6.5, 100 µM
# Jejunum [25] = assay: Drug uptake in wild type mouse jejunum at 100 uM at pH 6.5 by HPLC analysis in presence of organic cation substrate TEA; type: ADME, tissue-based; conditions: in vivo, pH 6.5, 100 µM
# Ileum [26] = assay: Drug degradation in mouse ileum at 100 uM by chromatographic analysis; type: ADME, tissue-based
# Jejunum [27] = assay: Drug uptake in wild type mouse jejunum at 100 uM at pH 6.5 by HPLC analysis in presence of organic anion substrate PAH; type: ADME, tissue-based; conditions: in vivo, pH 6.5, 100 µM
# Jejunum [28] = assay: Drug degradation in mouse jejunum at 100 uM by chromatographic analysis; type: ADME, tissue-based
# Jejunum [29] = assay: Drug uptake in wild type mouse jejunum at 100 uM at pH 6.5 by HPLC analysis in presence of PhT1/2 substrate L-histidine; type: ADME, tissue-based; conditions: in vivo, pH 6.5, 100 µM
# Jejunum [30] = assay: Effective permeability of the compound in PepT1 knockout mouse jejunum at 100 uM by HPLC analysis relative to wild type mouse; type: ADME, tissue-based
# Jejunum [31] = assay: (§1) Drug uptake in wild type mouse jejunum at 0.01 to 50 mM by nonlinear Michaelis-Menten equation analysis; type: ADME, tissue-based
# [32] = as §1; type: ADME, tissue-based; conditions: mouse, jejunum
# PepT1 (SLC15A1) [33] = molecular target: T1, PepT1 (SLC15A1); assay: Effective permeability of the compound assessed as PepT1-mediated drug uptake in wild type mouse ileum at 100 uM by HPLC analysis; type: ADME, tissue-based; conditions: read-out: Peff
# PepT1 (SLC15A1) [34] = molecular target: T1, PepT1 (SLC15A1); assay: Effective permeability of the compound assessed as PepT1-mediated drug uptake in wild type mouse duodenum at 100 uM by HPLC analysis; type: ADME; conditions: read-out: Peff
# [35] = substrate: CC(C)[C@H](N)C(=O)OCCOCn1cnc2c(=O)[nH]c(N)nc21; assay: Permeability of the compound assessed as human PepT1-mediated drug uptake in Xenopus oocytes; type: ADME, cell-based
# [36] = substrate: CC(C)[C@H](N)C(=O)OCCOCn1cnc2c(=O)[nH]c(N)nc21; assay: Permeability of the compound assessed as human PepT1-mediated drug uptake in CHO cells at pH 5.5; type: ADME, cell-based
# [37] = substrate: CC(C)[C@H](N)C(=O)OCCOCn1cnc2c(=O)[nH]c(N)nc21; assay: Permeability of the compound assessed as human PepT1-mediated drug uptake in MDCK cells; type: ADME, cell-based
# [38] = substrate: CC(C)[C@H](N)C(=O)OCCOCn1cnc2c(=O)[nH]c(N)nc21; assay: Permeability of the compound assessed as human PepT1-mediated drug uptake in CHO cells at pH 7.9; type: ADME, cell-based
molecule,measurement,setting,value
Nc1nc2c(ncn2COCCO)c(=O)[nH]1 [ACYCLOVIR],Papp at 100 µM,[1],7.4 ×10⁻⁶ cm/s
same,Drug metabolism,Plasma [2],metabolite_detected
same,Cmax,[3],2 µM
same,Papp at 100 µM,PepT1 (SLC15A1) [4],4 ×10⁻⁶ cm/s
same,Tmax,[5],25 min
same,Tmax,[6],70 min
same,Stability,[7],< 5%
same,AUC(0-t) at 3 h,[8],5.02 µM·h
same,Cmax,[9],9.3 µM
same,AUC(0-t) at 3 h,[10],12.3 µM·h
COCCc1ccc(OCC(O)CNC(C)C)cc1 (stereo not drawn) [METOPROLOL],Papp,[11],134 ×10⁻⁶ cm/s
same,Papp,[12],50 ×10⁻⁶ cm/s
CC(C)[C@H](N)C(=O)OCCOCn1cnc2c(=O)nc(N)[nH]c21.Cl [VALACYCLOVIR HYDROCHLORIDE],Stability,Duodenum [13],Unstable
same,Drug uptake,Jejunum [14],Not Active
same,Peff,Ileum [15],< 10%
same,Papp at 100 µM,PepT1 (SLC15A1) [16],27 ×10⁻⁶ cm/s
same,Papp,[11],166 ×10⁻⁶ cm/s
same,Peff,Duodenum [17],< 10%
same,Stability,Colon [18],Unstable
same,Km,[19],1.6 mM
same,Peff,Colon [20],< 10%
same,Papp at 100 µM,PepT1 (SLC15A1) [4],170 ×10⁻⁶ cm/s
same,Km,[21],1.2 mM
same,Drug uptake,Jejunum [22],Not Active
same,Drug metabolism,Plasma [23],metabolite_detected
same,Drug uptake,Jejunum [24],Active
same,Drug uptake,Jejunum [25],Active
same,Stability,Ileum [26],Unstable
same,Drug uptake,Jejunum [27],Active
same,Stability,[7],< 5%
same,Stability,Jejunum [28],Unstable
same,Drug uptake,Jejunum [29],Active
same,Peff,Jejunum [30],< 10%
same,Kd,Jejunum [31],3 ×10⁻⁵ cm/s
same,Drug uptake,"Jejunum [31]; mouse, in vivo, 50000 µM",82%
same,Vmax,"Jejunum [31]; mouse, in vivo, 50000 µM",1.4 nmol/cm2/s
same,Km at up to 50000 µM,[32],10.2 mM
same,Papp at 100 µM,PepT1 (SLC15A1) [33],210 ×10⁻⁶ cm/s
same,Papp at 100 µM,PepT1 (SLC15A1) [34],240 ×10⁻⁶ cm/s
B1,Km,[35],5.9 mM
same,Km,[36],7.4 mM
same,Km,[37],3.8 mM
same,Km,[38],2.2 mM
